ChEMBL document CHEMBL1201862, “PubChem BioAssay data set” (2004)
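Compound exposure: 48 hours, 5 concentrations, 96-well plates. The concentration for 50% growth inhibition is given as GI50.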 The source made the active and inactive calls. Cut-off read from the data, not from the text of the source: active = GI50 up to about 1.1 µM and inactive = higher.

Legend:
Assay in all cases: NCI anticancer screen, dose series, 48 h
786-0 = test system: 786-0
A498 = test system: A498
A549 = test system: A549
ACHN = test system: ACHN
BT-549 = test system: BT-549
CAKI-1 = test system: CAKI-1
COLO 205 = test system: COLO 205
DU-145 = test system: DU-145
EKVX = test system: EKVX
HCC 2998 = test system: HCC 2998
HCT-116 = test system: HCT-116
HCT-15 = test system: HCT-15
HL-60 = test system: HL-60
HOP-62 = test system: HOP-62
HOP-92 = test system: HOP-92
HT-29 = test system: HT-29
Hs-578T = test system: Hs-578T
IGROV-1 = test system: IGROV-1
KM12 = test system: KM12
LOX IMVI = test system: LOX IMVI
M14 = test system: M14
MCF7 = test system: MCF7
MDA-MB-231 = test system: MDA-MB-231
MDA-MB-435 = test system: MDA-MB-435
MDA-N = test system: MDA-N
MOLT-4 = test system: MOLT-4
Malme-3M = test system: Malme-3M
NCI-H226 = test system: NCI-H226
NCI-H23 = test system: NCI-H23
NCI-H460 = test system: NCI-H460
NCI/ADR-RES = test system: NCI/ADR-RES
OVCAR-5 = test system: OVCAR-5
OVCAR-8 = test system: OVCAR-8
PC-3 = test system: PC-3
RXF 393 = test system: RXF 393
SF-268 = test system: SF-268
SF-539 = test system: SF-539
SK-MEL-28 = test system: SK-MEL-28
SK-MEL-2 = test system: SK-MEL-2
SK-MEL-5 = test system: SK-MEL-5
SN12C = test system: SN12C
SNB-19 = test system: SNB-19
SNB-75 = test system: SNB-75
SR = test system: SR
SW-620 = test system: SW-620
T47D = test system: T47D
TK-10 = test system: TK-10
U-251 = test system: U-251
UACC-257 = test system: UACC-257
UACC-62 = test system: UACC-62
UO-31 = test system: UO-31
K562 = test system: K562
NCI-H522 = test system: NCI-H522
OVCAR-3 = test system: OVCAR-3
OVCAR-4 = test system: OVCAR-4
SF-295 = test system: SF-295
SK-OV-3 = test system: SK-OV-3

## Cc1ccc2nc(-c3nccn3C)cc(C(=O)NC(C)CN(C)C)c2c1 (stereo unspecified)
786-0
  GI50: > 100 µM (inactive)
A498
  GI50: > 100 µM (inactive)
A549
  GI50: 89.9 µM (inactive)
ACHN
  GI50: 60 µM (inactive)
BT-549
  GI50: > 100 µM (inactive)
CAKI-1
  GI50: > 100 µM (inactive)
COLO 205
  GI50: > 100 µM (inactive)
DU-145
  GI50: > 100 µM (inactive)
EKVX
  GI50: > 100 µM (inactive)
HCC 2998
  GI50: > 10 µM (inactive)
HCT-116
  GI50: > 100 µM (inactive)
HCT-15
  GI50: 55.1 µM
HL-60
  GI50: 10.1 µM (inactive)
HOP-62
  GI50: 34.9 µM (inactive)
HOP-92
  GI50: 46.3 µM (inactive)
HT-29
  GI50: 72.6 µM (inactive)
Hs-578T
  GI50: > 100 µM (inactive)
IGROV-1
  GI50: > 100 µM (inactive)
KM12
  GI50: > 100 µM (inactive)
LOX IMVI
  GI50: 91.2 µM (inactive)
M14
  GI50: > 100 µM (inactive)
MCF7
  GI50: 63 µM (inactive)
MDA-MB-231
  GI50: > 100 µM (inactive)
MDA-MB-435
  GI50: > 100 µM (inactive)
MDA-N
  GI50: > 100 µM (inactive)
MOLT-4
  GI50: > 10 µM (inactive)
Malme-3M
  GI50: > 100 µM (inactive)
NCI-H226
  GI50: 98.6 µM (inactive)
NCI-H23
  GI50: > 100 µM (inactive)
NCI-H460
  GI50: 24.9 µM (inactive)
NCI/ADR-RES
  GI50: > 100 µM (inactive)
OVCAR-5
  GI50: > 100 µM (inactive)
OVCAR-8
  GI50: > 100 µM (inactive)
PC-3
  GI50: 25.3 µM (inactive)
RXF 393
  GI50: > 100 µM (inactive)
SF-268
  GI50: > 100 µM (inactive)
SF-539
  GI50: 26.1 µM (inactive)
SK-MEL-28
  GI50: > 100 µM (inactive)
SK-MEL-2
  GI50: > 100 µM (inactive)
SK-MEL-5
  GI50: 97.9 µM (inactive)
SN12C
  GI50: > 100 µM (inactive)
SNB-19
  GI50: > 100 µM (inactive)
SNB-75
  GI50: > 100 µM (inactive)
SR
  GI50: 0.711 µM (active)
SW-620
  GI50: > 100 µM (inactive)
T47D
  GI50: > 100 µM (inactive)
TK-10
  GI50: > 100 µM (inactive)
U-251
  GI50: > 100 µM (inactive)
UACC-257
  GI50: > 100 µM (inactive)
UACC-62
  GI50: > 100 µM (inactive)
UO-31
  GI50: 92.7 µM (inactive)

## COc1ccc(CNC2=N/C(=C\c3ccccc3Cl)C(=O)N2C)cc1
786-0
  GI50: 19.7 µM (inactive)
A498
  GI50: 25.7 µM (inactive)
A549
  GI50: 31.1 µM (inactive)
ACHN
  GI50: 29.6 µM (inactive)
BT-549
  GI50: 36.8 µM (inactive)
CAKI-1
  GI50: 30.7 µM (inactive)
COLO 205
  GI50: 24.9 µM (inactive)
DU-145
  GI50: 27.7 µM (inactive)
EKVX
  GI50: 28.3 µM (inactive)
HCC 2998
  GI50: 21.8 µM (inactive)
HCT-116
  GI50: 18.4 µM (inactive)
HCT-15
  GI50: 28.4 µM
HL-60
  GI50: 25.8 µM (inactive)
HOP-62
  GI50: 47.8 µM (inactive)
HOP-92
  GI50: 23.1 µM (inactive)
HT-29
  GI50: 22.9 µM (inactive)
Hs-578T
  GI50: 57.4 µM (inactive)
IGROV-1
  GI50: 24.9 µM (inactive)
K562
  GI50: 25.5 µM (inactive)
KM12
  GI50: 20.4 µM (inactive)
LOX IMVI
  GI50: 20.1 µM (inactive)
M14
  GI50: 17.9 µM (inactive)
MCF7
  GI50: 25.5 µM (inactive)
MDA-MB-231
  GI50: 26.4 µM (inactive)
MDA-MB-435
  GI50: 19 µM (inactive)
MDA-N
  GI50: 18.8 µM (inactive)
MOLT-4
  GI50: 27.1 µM (inactive)
Malme-3M
  GI50: 33 µM (inactive)
NCI-H226
  GI50: 49.2 µM (inactive)
NCI-H460
  GI50: 30.1 µM (inactive)
NCI-H522
  GI50: 20.5 µM (inactive)
NCI/ADR-RES
  GI50: 28 µM (inactive)
OVCAR-3
  GI50: 22.8 µM (inactive)
OVCAR-4
  GI50: 23.9 µM (inactive)
OVCAR-5
  GI50: 27.9 µM (inactive)
OVCAR-8
  GI50: 27.1 µM (inactive)
PC-3
  GI50: 28.1 µM (inactive)
RXF 393
  GI50: 31.8 µM (inactive)
SF-268
  GI50: 45 µM (inactive)
SF-295
  GI50: 31.7 µM (inactive)
SF-539
  GI50: 24.6 µM (inactive)
SK-MEL-28
  GI50: 33 µM (inactive)
SK-MEL-2
  GI50: 19.3 µM (inactive)
SK-MEL-5
  GI50: 19.9 µM (inactive)
SK-OV-3
  GI50: 51.2 µM (inactive)
SN12C
  GI50: 19.6 µM (inactive)
SNB-19
  GI50: 38.6 µM (inactive)
SNB-75
  GI50: 11.8 µM (inactive)
SR
  GI50: 25.2 µM (inactive)
SW-620
  GI50: 19.5 µM (inactive)
T47D
  GI50: 14.2 µM (inactive)
TK-10
  GI50: 37.7 µM (inactive)
U-251
  GI50: 17.9 µM (inactive)
UACC-257
  GI50: 33.6 µM (inactive)
UACC-62
  GI50: 17.5 µM (inactive)
